Measured values reported in patent US11639350B2, “Heteroaryldihydropyrimidine derivatives and methods of treating hepatitis B infections” (Janssen Pharmaceutica NV, priority 2018, dated 2023).
pEC50: −log10 of the molar value. Like-named read-outs stand apart in the source and are kept apart here.

Assays:
[1] = test system: HBV; test: HBV inhibitory activity: HBV DNA in the culture medium of HepG2.2.15 cells by q-PCR; type: cell-based
Procedure, shortened: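 Supernatant HBV DNA quantified by q-PCR after a 6-day compound exposure, with one mid-course medium change, of HepG2.2.15 cells (stably integrated HBV; 40,000 per well, 2% FBS). Eight-point 3-fold series topped at 10 μM for antiviral EC50; separate plates of 5,000 cells per well with 100 μM top give CC50.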

[2] = Cytotoxicity determination in HepG2.2.15 cells (CCK-8); type: cell-based; conditions: human, 6 days of compound treatment, CCK-8, highest concentration 100 μM
Procedure, shortened: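 CC50 is from CCK-8 absorbance (450 nm, 630 nm reference) after 2.5 h with reagent. Before that, compounds were applied for six days, top concentration 100 μM, eight threefold dilutions, one mid-course medium change, to stably HBV-integrated HepG2.2.15 cells plated at 5,000/well in 2% FBS.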

[3] = Hepatitis B virus, HepG2.2.15, 144 h, HepG2.2.15 cells, 6 days of compound treatment, HBV DNA in culture medium by q-PCR, highest concentration 10 μM, read-out: EC50

SMILES	pEC50 [1, 3]	CC50 at 6 days [2]	pEC50 ([1]; HepG2.2.15 cells, 6 days of compound treatment, HBV DNA in culture medium by q-PCR, highest concentration 10 μM, read-out: EC50)	pEC50 ([1]; Hepatitis B virus, HepG2.2.15, 144 h)
COC(=O)C1=C(C2CCN(C(C)=O)CC2)NC(c2nccs2)=NC1c1ccc(F)cc1Cl (single isomer, unassigned) [Compound 2B, Methyl 6-(1-acetylpiperidin-4-yl)-4-(2-chloro-4-fluorophenyl)-2-(thiazol-2-yl)-1,4-dihydropyrimidine-5-carboxylate]	6.47	> 100000 nM		
COC(=O)C1=C(C2CCN(S(=O)(=O)[C@H]3CC[C@@H](CC(=O)O)CC3)CC2)NC(c2nccs2)=NC1c1ccc(F)cc1Cl (relative stereo) [Compound 476B, (cis)-2-(4-((4-(6-(2-Chloro-4-fluorophenyl)-5-(methoxycarbonyl)-2-(thiazol-2-yl)-3,6-dihydropyrimidin-4-yl)piperidin-1-yl)sulfonyl)cyclohexyl)acetic Acid]	7.36	30200 nM		
COC(=O)C1=C(C2CCOCC2)NC(c2nccs2)=NC1c1cccc(F)c1Cl (single isomer, unassigned) [Compound 50B, 4-(2-Chloro-3-fluoro-phenyl)-6-(tetrahydro-pyran-4-yl)-2-thiazol-2-yl-1,4-dihydro-pyrimidine-5-carboxylic acid methyl ester]	6.57	35600 nM		
COC(=O)C1=C(C2CCN(S(=O)(=O)[C@H]3C[C@H](C(=O)O)C3)CC2)NC(c2nccs2)=NC1c1ccc(F)cc1Br (stereo partly drawn) [Compound 241B, (trans)-3-((4-(−6-(2-Bromo-4-fluorophenyl)-5-(methoxycarbonyl)-2-(thiazol-2-yl)-3,6-dihydropyrimidin-4-yl)piperidin-1-yl)sulfonyl)cyclobutanecarboxylic Acid]	6.92	60000 nM		
COC(=O)C1=C(C2CN(S(C)(=O)=O)C2)NC(c2nccs2)=NC1c1ccc(F)cc1Cl (single isomer, unassigned) [Compound 84A, 4-(2-Chloro-4-fluoro-phenyl)-6-(1-methanesulfonyl-azetidin-3-yl)-2-thiazol-2-yl-1,4-dihydro-pyrimidine-5-carboxylic Acid Methyl Ester]	6.93	29000 nM		
CCOC(=O)C1=C([C@@H]2C[C@H](NC(C)=O)CO2)NC(c2nccs2)=NC1c1cccc(F)c1Cl (relative stereo) [Compound 262, (cis)-Ethyl 6-(4-acetamidotetrahydrofuran-2-yl)-4-(2-chloro-3-fluorophenyl)-2-(thiazol-2-yl)-1,4-dihydropyrimidine-5-carboxylate]	6.40	75800 nM		
CCOC(=O)C1=C(C2CCN(S(=O)(=O)[C@H]3C[C@H](C(=O)O)C3)CC2)NC(c2nccs2)=NC1c1ccc(F)c(F)c1C (single isomer, unassigned) [Compound 343A, (trans)-3-((4-(6-(3,4-difluoro-2-methylphenyl)-5-(ethoxycarbonyl)-2-(thiazol-2-yl)-3,6-dihydropyrimidin-4-yl)piperidin-1-yl)sulfonyl)cyclobutanecarboxylic Acid]		40800 nM	7.05	
COC(=O)C1=C(C2CCN(S(=O)(=O)C(C)(C)C(=O)O)CC2)NC(c2nccs2)=NC1c1ccc(F)cc1Cl (stereo not shown) [Compound 7, 2-((4-(6-(2-Chloro-4-fluorophenyl)-5-(methoxycarbonyl)-2-(thiazol-2-yl)-3,6-dihydro-pyrimidin-4-yl)piperidin-1-yl)sulfonyl)-2-methylpropanoic Acid]	6.77	> 100000 nM		
COC(=O)C1=C(C2CC(C(=O)OC)C2)NC(c2nccs2)=NC1c1ccc(F)cc1Cl (single isomer, unassigned) [Compound 85C, 4-(2-Chloro-4-fluoro-phenyl)-6-(3-methoxycarbonyl-cyclobutyl)-2-thiazol-2-yl-1,4-dihydro-pyrimidine-5-carboxylic Acid Methyl Ester]	6.22	95400 nM		
COC(=O)C1=C([C@H]2CC[C@H](O)CC2)NC(c2nccs2)=NC1c1cccc(F)c1Cl (single isomer, unassigned) [Compound 381A, (trans)-Methyl 4-(2-chloro-3-fluorophenyl)-6-(4-hydroxycyclohexyl)-2-(thiazol-2-yl)-1,4-dihydropyrimidine-5-carboxylate]	7.15	28500 nM		
COC(=O)C1=C(C2CCN(S(=O)(=O)CCC(=O)O)CC2)NC(c2nccs2)=NC1c1ccc(F)c(F)c1Cl (stereo not shown) [Compound 230, 3-((4-(6-(2-Chloro-3,4-difluorophenyl)-5-(methoxycarbonyl)-2-(thiazol-2-yl)-3,6-dihydropyrimidin-4-yl)piperidin-1-yl)sulfonyl)propanoic Acid]	6.84	> 100000 nM		
CCOC(=O)C1=C(C2CCN(S(=O)(=O)[C@H]3C[C@H](C(=O)O)C3)CC2)NC(c2nccs2)=NC1c1cccc(F)c1Cl (stereo partly drawn) [Compound 319B, (trans)-3-((4-(6-(2-chloro-3-fluorophenyl)-5-(ethoxycarbonyl)-2-(thiazol-2-yl)-3,6-dihydropyrimidin-4-yl)piperidin-1-yl)sulfonyl)-cyclobutanecarboxylic Acid]	6.99	31300 nM		
COC(=O)C1=C(C2CCN(S(C)(=O)=O)CC2)NC(c2nccs2)=NC1c1cccc(F)c1Cl (single isomer, unassigned) [Compound 112B, Methyl 4-(2-chloro-3-fluorophenyl)-6-(1-(methylsulfonyl)-piperidin-4-yl)-2-(thiazol-2-yl)-1,4-dihydropyrimidine-5-carboxylate]	6.02	8200 nM		
CCOC(=O)C1=C(C2CCN(S(=O)(=O)C3CC(CC(=O)O)C3)CC2)NC(c2nccs2)=NC1c1ccc(F)c(F)c1Cl (stereo not shown) [Compound 482A, 2-(3-((4-(6-(2-Chloro-3,4-difluorophenyl)-5-(ethoxycarbonyl)-2-(thiazol-2-yl)-3,6-dihydropyrimidin-4-yl)piperidin-1-yl)sulfonyl)cyclobutyl)acetic Acid]	8.22	15300 nM		
COC(=O)C1=C(C2CCN(C(=O)C(C)(C)C)C2)NC(c2nccs2)=NC1c1ccc(F)cc1Cl (stereo not shown) [Compound 68, Methyl 4-(2-chloro-4-fluorophenyl)-6-(1-pivaloylpyrrolidin-3-yl)-2-(thiazol-2-yl)-1,4-dihydropyrimidine-5-carboxylate]	6.24	72900 nM		
COC(=O)C1=C([C@@H]2CO[C@@H](C(=O)O)C2)NC(c2nccs2)=N[C@H]1c1cccc(F)c1Cl [Compound 212A]	5.99	> 100000 nM		
COC(=O)C1=C(C2CCN(S(=O)(=O)CCOCCO)CC2)NC(c2nccs2)=NC1c1ccc(F)cc1Cl (stereo not shown) [Compound 484, Methyl 4-(2-chloro-4-fluorophenyl)-6-(1-((2-(2-hydroxyethoxy)ethyl)sulfonyl)piperidin-4-yl)-2-(thiazol-2-yl)-1,4-dihydropyrimidine-5-carboxylate]		47000 nM		8.30
COC(=O)C1=C(C2CCN(S(=O)(=O)[C@H]3CC[C@@H](C(=O)O)CC3)CC2)NC(c2nccs2)=NC1c1ccc(F)cc1Cl (relative stereo) [Compound 313A, (cis)-4-((4-(6-(2-Chloro-4-fluorophenyl)-5-(methoxycarbonyl)-2-(thiazol-2-yl)-3,6-dihydropyrimidin-4-yl)piperidin-1-yl)sulfonyl)-cyclohexanecarboxylic Acid]	7.24	35000 nM		
COC(=O)C1=C(C2CCN(S(=O)(=O)C3CCC(CC(=O)O)CC3)CC2)NC(c2nccs2)=NC1c1ccc(F)c(F)c1Cl (stereo not shown) [Compound 478, 2-(4-((4-(6-(2-Chloro-3,4-difluorophenyl)-5-(methoxycarbonyl)-2-(thiazol-2-yl)-3,6-dihydropyrimidin-4-yl)piperidin-1-yl)sulfonyl)cyclohexyl)acetic Acid]	8.22	23400 nM		
CCOC(=O)C1=C(C2CCN(S(=O)(=O)[C@H]3C[C@H](C(=O)O)C3)CC2)NC(c2nccs2)=NC1c1ccccc1Cl (stereo partly drawn) [Compound 146, (trans)-3-((4-(6-(2-chlorophenyl)-5-(ethoxycarbonyl)-2-(thiazol-2-yl)-3,6-dihydropyrimidin-4-yl)piperidin-1-yl)sulfonyl)cyclobutane-1-carboxylic Acid]	7.17	42100 nM		
COC(=O)C1=C([C@H]2CC[C@H](C(=O)OC)CC2)NC(c2ncc(F)cc2F)=NC1c1ccc(F)cc1Cl (single isomer, unassigned) [Compound 174A, Methyl 4-(2-chloro-4-fluorophenyl)-2-(3,5-difluoropyridin-2-yl)-6-((trans)-4-(methoxycarbonyl)cyclohexyl)-1,4-dihydropyrimidine-5-carboxylate]	6.89	19400 nM		
CCOC(=O)C1=C([C@H]2CC[C@H](C(=O)O)CC2)NC(c2nccs2)=NC1c1cccc(F)c1Br (stereo partly drawn) [Compound 150A, (trans)-4-(6-(2-bromo-3-fluorophenyl)-5-(ethoxycarbonyl)-2-(thiazol-2-yl)-3,6-dihydropyrimidin-4-yl)cyclohexane-1-carboxylic Acid]	7.15	28100 nM		
COCCS(=O)(=O)N1CCC(C2=C(C(=O)OC)C(c3ccc(F)cc3Cl)N=C(c3nccs3)N2)C1 (single isomer, unassigned) [Compound 365, Methyl 4-(2-chloro-4-fluorophenyl)-6-((R*)-1-((2-methoxyethyl)sulfonyl)pyrrolidin-3-yl)-2-(thiazol-2-yl)-1,4-dihydropyrimidine-5-carboxylate]	7.21	21800 nM		
